From patent US20050089495A1, “Transdermal transport of compounds” (priority 2001, published 2005)
Counter-ions that a name gives are not always drawn.

Key:
[1] = females using the patches; cited from earlier work
[2] = Transdermal delivery of testosterone and testosterone phosphate in the hairless rat model; total testosterone in plasma; conditions: topical carrier cream; for concentration of testosterone in blood after application: 1 μg
rats = assay: Efficacy of atropine phosphate compared to atropine sulfate: heart rate after intravenous administration; type: in vivo; conditions: for heart rate after administration: IV 2 mg/kg in phosphate buffer, baseline approx. 350 bpm
Method: The efficacy of atropine phosphate when compared to atropine sulfate was investigated in this example.
Atropine sulfate and atropine phosphate formulated in phosphate buffer and given intravenously (IV) each to two rats at 2 mg/kg resulted similar increases in heart rates.
For example, the baseline heart rate of a rat was approx. 350 bpm and increased to 450 bpm within 15 minutes after administration of atropine (either atropine phosphate or atropine sulfate). Approximately two hours later, normal heart rates were restored. This is regarded as a significant change in pulse rate.

[3] = Transdermal delivery of estradiol and estradiol phosphate in the hairless rat model; total estrogens RIA in plasma
[4] = Acute transdermal penetration of 3H-Estradiol and 3H-Estradiol Phosphate in the hairless rat model; type: in vivo, female albino hairless rats; conditions: 24-hour period

Row | Compound | concentration of testosterone in blood after application [2] | time until normal heart rates were restored (rats; IV 2 mg/kg) | heart rate after administration (rats) [bpm] | further results
1 | C[C@]12CC[C@@H]3c4ccc(O)cc4CC[C@H]3[C@@H]1CC[C@@H]2O [E, Estradiol] |  |  |  | females reporting skin irritation [1]: up to 17%
2 | C[C@]12CC[C@H]3[C@@H](CCC4=CC(=O)CC[C@@]43C)[C@@H]1CC[C@@H]2O [T, Testosterone] | increased |  |  | maximum concentration of total testosterone in plasma (mean±SD) ([2]; 1 μg on about 4 cm^2 dorsal skin, baseline t=0 subtracted): 30.90 ± 11.00 pg/mL
3 | Testosterone Phosphate [TP] | increased |  |  | 
4 | CN1[C@@H]2CC[C@H]1CC(OC(=O)C(CO)c1ccccc1)C2.O=P(O)(O)O (stereo partly drawn) [atropine phosphate] |  | Approximately two | 450 | effect on pulse rate (rats; IV 2 mg/kg): effective to increase pulse rate
5 | C[C@]12CC[C@@H]3c4ccc(O)cc4CC[C@H]3[C@@H]1CC[C@@H]2OP(=O)(O)O [EP, Estradiol Phosphate] |  |  |  | plasma concentration of the hormone compared to the E treatment ([3]; equivalent doses applied, 24-hour period): at least twice; concentration of estradiol in blood versus estradiol application ([3]; over a 24-hour period, P<0.01 at 2, 4 and 16 hours): consistently higher; levels in the epidermis and dermis [4]: Higher levels
6 | CN1[C@@H]2CC[C@H]1C[C@@H](OC(=O)C(CO)c1ccccc1)C2 (stereo partly drawn) [atropine sulfate, reference compound] |  | Approximately two | 450 | 
